Reference: the kinase profiling compilation of Christmann-Franck et al. (2016)

Tests used:
Test in all cases: KINOMEscan competition binding
Conditions in all cases: compound 1.0 µM
[1] = target: MATK (human) (UniProt P42679)
[2] = target: ICK (human) (UniProt Q9UPZ9)
[3] = target: BMX (human) (UniProt P51813)
[4] = target: MAP3K6 (human) (UniProt O95382)
[5] = target: YES1 (human) (UniProt P07947)
[6] = target: CDK19 (human) (UniProt Q9BWU1)
[7] = target: PRKX (human) (UniProt P51817)
[8] = target: GSK3B (human) (UniProt P49841)
[9] = target: CDK5 (human) (UniProt Q00535)
[10] = target: STK32B (human) (UniProt Q9NY57)
Chain of STK32B (human) (Q9NY57 whole entry, looked up): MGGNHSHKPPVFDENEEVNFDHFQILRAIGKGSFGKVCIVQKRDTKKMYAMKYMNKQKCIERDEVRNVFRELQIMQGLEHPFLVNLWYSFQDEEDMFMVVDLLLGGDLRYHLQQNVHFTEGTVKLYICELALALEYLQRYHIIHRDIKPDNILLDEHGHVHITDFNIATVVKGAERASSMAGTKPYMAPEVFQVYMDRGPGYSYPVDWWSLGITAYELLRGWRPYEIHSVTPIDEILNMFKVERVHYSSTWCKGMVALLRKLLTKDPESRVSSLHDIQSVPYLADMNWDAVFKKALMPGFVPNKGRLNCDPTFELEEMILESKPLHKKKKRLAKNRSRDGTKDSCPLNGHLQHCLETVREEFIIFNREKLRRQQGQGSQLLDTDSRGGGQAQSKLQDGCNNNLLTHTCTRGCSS

[11] = target: CSNK2A1 (human) (UniProt P68400)
[12] = target: MKNK1 (human) (UniProt Q9BUB5)
[13] = target: NTRK2 (human) (UniProt Q16620)
[14] = target: ABL1 (human) (UniProt P00519)
[15] = target: CAMK4 (human) (UniProt Q16566)
[16] = tested on: ABL1 (human), P00519 [Q252H]
[17] = target: PAK6 (human) (UniProt Q9NQU5)
[18] = target: EPHA1 (human) (UniProt P21709)
Chain of EPHA1 (human) (P21709 whole entry, looked up): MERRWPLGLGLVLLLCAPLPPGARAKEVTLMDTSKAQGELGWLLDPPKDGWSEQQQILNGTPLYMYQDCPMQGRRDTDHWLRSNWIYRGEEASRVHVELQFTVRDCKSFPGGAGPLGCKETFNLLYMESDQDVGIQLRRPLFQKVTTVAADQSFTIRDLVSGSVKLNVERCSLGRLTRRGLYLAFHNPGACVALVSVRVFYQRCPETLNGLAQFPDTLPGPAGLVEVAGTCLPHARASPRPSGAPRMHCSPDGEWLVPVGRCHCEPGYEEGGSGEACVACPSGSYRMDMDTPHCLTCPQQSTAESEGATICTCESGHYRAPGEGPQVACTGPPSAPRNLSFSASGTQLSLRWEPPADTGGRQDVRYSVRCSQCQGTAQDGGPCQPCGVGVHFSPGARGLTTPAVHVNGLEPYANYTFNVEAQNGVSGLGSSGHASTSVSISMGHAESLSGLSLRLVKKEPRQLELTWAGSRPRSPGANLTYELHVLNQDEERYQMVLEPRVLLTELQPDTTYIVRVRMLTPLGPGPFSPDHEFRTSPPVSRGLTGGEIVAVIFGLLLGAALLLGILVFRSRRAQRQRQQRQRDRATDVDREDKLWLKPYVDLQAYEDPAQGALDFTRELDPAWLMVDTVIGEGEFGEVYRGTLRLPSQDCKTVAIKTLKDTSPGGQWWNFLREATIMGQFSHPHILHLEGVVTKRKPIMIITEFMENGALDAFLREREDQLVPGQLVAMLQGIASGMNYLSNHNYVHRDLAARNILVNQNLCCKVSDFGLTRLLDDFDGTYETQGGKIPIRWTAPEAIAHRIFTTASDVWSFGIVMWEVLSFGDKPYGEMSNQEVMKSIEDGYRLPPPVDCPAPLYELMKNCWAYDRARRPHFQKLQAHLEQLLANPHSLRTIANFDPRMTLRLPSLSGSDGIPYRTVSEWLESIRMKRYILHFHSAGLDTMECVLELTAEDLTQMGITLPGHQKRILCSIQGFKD

[19] = target: PLK2 (human) (UniProt Q9NYY3)
[20] = target: AAK1 (human) (UniProt Q2M2I8)
[21] = target: GRK4 (human) (UniProt P32298)
[22] = target: RPS6KA1 KD1 (human) (UniProt Q15418)
[23] = target: BTK (human) (UniProt Q06187)
[24] = target: MAK (human) (UniProt P20794)
[25] = target: PRKD3 (human) (UniProt O94806)
[26] = target: MAP2K3 (human) (UniProt P46734)
[27] = target: STK17B (human) (UniProt O94768)
Chain of STK17B (human) (O94768 whole entry, looked up): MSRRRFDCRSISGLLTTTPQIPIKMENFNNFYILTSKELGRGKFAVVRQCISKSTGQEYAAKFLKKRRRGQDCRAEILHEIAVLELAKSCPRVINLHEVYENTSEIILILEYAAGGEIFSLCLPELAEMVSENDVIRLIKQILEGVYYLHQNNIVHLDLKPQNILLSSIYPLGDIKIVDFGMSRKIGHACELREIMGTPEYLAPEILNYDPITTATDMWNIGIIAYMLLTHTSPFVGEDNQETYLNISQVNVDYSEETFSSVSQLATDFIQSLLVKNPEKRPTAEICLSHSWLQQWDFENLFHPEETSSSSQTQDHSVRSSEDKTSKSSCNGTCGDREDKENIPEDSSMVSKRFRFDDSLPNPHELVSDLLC

[28] = target: PAK3 (human) (UniProt O75914)
[29] = target: EPHB6 (human) (UniProt O15197)
[30] = target: MAP2K6 (human) (UniProt P52564)
[31] = target: RIPK1 (human) (UniProt Q13546)
[32] = tested on: RET (human), P07949 [M918T]
[33] = target: MAPK15 (human) (UniProt Q8TD08)
Chain of MAPK15 (human) (Q8TD08 whole entry, looked up): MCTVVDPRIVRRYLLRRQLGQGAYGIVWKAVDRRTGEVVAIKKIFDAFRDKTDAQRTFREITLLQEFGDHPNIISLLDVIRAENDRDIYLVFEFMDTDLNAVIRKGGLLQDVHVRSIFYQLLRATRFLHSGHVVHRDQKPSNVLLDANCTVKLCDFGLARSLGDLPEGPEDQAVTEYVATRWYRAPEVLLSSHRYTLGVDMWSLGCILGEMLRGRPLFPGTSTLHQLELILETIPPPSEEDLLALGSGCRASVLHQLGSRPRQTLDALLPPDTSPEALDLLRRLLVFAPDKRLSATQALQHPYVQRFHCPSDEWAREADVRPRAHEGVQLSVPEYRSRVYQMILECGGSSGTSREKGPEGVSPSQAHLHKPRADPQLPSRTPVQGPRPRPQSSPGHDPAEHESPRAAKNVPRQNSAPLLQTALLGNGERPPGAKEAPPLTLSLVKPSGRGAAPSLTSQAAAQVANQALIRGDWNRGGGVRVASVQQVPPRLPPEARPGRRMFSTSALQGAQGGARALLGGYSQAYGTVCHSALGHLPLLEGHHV

[34] = target: DDR2 (human) (UniProt Q16832)
[35] = tested on: KIT (human), P10721 [V559D]
[36] = target: ZAP70 (human) (UniProt P43403)
[37] = target: RPS6KA6 KD2 (human) (UniProt Q9UK32)
[38] = tested on: FLT3 (human), P36888 [ITD]
[39] = target: MARK3 (human) (UniProt P27448)
Chain of MARK3 (human) (P27448 whole entry, looked up): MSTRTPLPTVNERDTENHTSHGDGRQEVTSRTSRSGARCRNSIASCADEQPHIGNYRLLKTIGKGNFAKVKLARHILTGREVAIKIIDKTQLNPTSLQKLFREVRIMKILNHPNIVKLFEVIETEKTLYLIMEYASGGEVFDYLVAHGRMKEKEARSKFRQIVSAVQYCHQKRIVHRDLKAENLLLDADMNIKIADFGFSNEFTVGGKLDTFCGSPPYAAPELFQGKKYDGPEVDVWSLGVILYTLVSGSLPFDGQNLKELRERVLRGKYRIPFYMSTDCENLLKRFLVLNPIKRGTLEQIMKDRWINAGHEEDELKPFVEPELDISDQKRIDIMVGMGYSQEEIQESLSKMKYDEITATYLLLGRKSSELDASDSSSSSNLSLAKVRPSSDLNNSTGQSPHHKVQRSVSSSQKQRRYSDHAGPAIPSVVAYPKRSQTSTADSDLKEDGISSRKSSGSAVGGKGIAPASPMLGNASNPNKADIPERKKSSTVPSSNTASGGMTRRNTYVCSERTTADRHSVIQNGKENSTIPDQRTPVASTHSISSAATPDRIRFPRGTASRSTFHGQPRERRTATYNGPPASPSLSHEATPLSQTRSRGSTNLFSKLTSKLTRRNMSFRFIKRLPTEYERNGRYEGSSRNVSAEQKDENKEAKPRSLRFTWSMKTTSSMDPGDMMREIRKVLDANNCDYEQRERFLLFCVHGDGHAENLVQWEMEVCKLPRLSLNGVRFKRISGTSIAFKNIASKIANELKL

[40] = target: ULK2 (human) (UniProt Q8IYT8)
[41] = target: CHUK (human) (UniProt O15111)

Chain of MAP3K6 (human) (O95382 whole entry, looked up): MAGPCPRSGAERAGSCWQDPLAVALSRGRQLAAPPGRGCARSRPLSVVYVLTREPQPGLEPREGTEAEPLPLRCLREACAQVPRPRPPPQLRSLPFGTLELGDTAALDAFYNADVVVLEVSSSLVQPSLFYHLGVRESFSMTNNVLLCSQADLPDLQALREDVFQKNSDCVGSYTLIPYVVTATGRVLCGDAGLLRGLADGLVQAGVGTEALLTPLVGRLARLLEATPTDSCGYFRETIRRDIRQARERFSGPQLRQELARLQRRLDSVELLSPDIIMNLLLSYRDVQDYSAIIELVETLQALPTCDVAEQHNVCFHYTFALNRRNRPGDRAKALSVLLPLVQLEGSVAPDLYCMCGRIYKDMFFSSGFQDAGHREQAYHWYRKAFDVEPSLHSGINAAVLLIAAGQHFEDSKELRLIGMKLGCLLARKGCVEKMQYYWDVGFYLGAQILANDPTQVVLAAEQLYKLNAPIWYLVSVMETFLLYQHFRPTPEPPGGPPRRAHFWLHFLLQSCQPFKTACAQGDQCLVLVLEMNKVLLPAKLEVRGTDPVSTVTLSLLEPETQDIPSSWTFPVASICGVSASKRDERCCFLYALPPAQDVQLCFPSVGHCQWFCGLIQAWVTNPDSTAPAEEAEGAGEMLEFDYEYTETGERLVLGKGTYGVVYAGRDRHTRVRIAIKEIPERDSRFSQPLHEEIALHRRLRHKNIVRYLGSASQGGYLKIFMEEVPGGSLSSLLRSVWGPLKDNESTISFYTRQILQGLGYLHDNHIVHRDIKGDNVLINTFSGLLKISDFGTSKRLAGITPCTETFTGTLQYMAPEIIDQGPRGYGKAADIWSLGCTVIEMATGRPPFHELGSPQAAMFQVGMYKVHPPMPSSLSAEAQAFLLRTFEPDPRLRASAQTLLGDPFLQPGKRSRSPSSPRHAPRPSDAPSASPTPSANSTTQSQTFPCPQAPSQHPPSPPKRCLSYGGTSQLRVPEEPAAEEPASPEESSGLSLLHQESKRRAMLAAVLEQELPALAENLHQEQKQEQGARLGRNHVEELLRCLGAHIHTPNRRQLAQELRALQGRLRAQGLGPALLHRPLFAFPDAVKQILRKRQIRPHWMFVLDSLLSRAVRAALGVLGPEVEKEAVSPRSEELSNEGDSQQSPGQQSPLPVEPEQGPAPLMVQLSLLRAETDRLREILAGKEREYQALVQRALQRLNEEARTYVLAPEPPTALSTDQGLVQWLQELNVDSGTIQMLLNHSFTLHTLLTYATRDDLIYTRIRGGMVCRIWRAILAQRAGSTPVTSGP
Chain of YES1 (human) (P07947 whole entry, looked up): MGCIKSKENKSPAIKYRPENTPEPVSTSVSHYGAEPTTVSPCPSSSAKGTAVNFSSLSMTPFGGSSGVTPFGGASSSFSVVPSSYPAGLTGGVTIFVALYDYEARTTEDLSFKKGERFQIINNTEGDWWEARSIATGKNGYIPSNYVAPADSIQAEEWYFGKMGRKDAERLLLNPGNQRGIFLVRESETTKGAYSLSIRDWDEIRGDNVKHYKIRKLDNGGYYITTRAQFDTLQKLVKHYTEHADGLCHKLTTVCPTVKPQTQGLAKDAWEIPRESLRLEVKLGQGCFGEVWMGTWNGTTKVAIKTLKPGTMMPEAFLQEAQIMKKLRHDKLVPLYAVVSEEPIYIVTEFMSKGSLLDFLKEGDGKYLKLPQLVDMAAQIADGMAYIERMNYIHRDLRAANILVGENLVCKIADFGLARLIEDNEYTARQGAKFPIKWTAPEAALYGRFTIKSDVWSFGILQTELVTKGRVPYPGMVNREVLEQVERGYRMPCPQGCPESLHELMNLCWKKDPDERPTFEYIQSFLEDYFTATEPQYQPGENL

## Nc1cc(C(F)(F)F)c(-c2cc(N3CCOCC3)nc(N3CCOCC3)n2)cn1
[1]
  inhibition of binding: 28%
[2]
  inhibition of binding: 0%
[3]
  inhibition of binding: 14%
[4]
  inhibition of binding: 0%
[5]
  inhibition of binding: 0%
[6]
  inhibition of binding: 0%
[7]
  inhibition of binding: 0%
[8]
  inhibition of binding: 0%
[9]
  inhibition of binding: 0%
[10]
  inhibition of binding: 11%
[11]
  inhibition of binding: 0%
[12]
  inhibition of binding: 0%
[13]
  inhibition of binding: 0%
[14]
  inhibition of binding: 0%
[15]
  inhibition of binding: 50%
[16]
  inhibition of binding: 0%
[17]
  inhibition of binding: 16%
[18]
  inhibition of binding: 2%
[19]
  inhibition of binding: 0%
[20]
  inhibition of binding: 0%
[21]
  inhibition of binding: 0%
[22]
  inhibition of binding: 0%
[23]
  inhibition of binding: 6%
[24]
  inhibition of binding: 0%
[25]
  inhibition of binding: 11%
[26]
  inhibition of binding: 0%
[27]
  inhibition of binding: 0%
[28]
  inhibition of binding: 0%
[29]
  inhibition of binding: 3%
[30]
  inhibition of binding: 0%
[31]
  inhibition of binding: 0%
[32]
  inhibition of binding: 13%
[33]
  inhibition of binding: 2%
[34]
  inhibition of binding: 19%
[35]
  inhibition of binding: 0%
[36]
  inhibition of binding: 4%
[37]
  inhibition of binding: 18%
[38]
  inhibition of binding: 0%
[39]
  inhibition of binding: 0%
[40]
  inhibition of binding: 0%
[41]
  inhibition of binding: 29%
